Bridge positions count the residues as written; N and C are the ends. Square brackets hold non-standard residues; d marks the D form. Peptide text beside a SMILES is read from it.
Tested on: pseudotyped SARS-CoV-2 Omicron BA.2.75
Conditions: pseudotyped Omicron BA.2.75, 1 h, 2 μM

## CC(C)C[C@@H]1NC(=O)[C@H](C(C)C)NC(=O)[C@H](C)NC(=O)[C@H](Cc2ccc(O)cc2)NC(=O)[C@H](CCC(N)=O)NC(=O)[C@H](CC(C)C)NC(=O)[C@@H](Cc2ccccc2)NC(=O)[C@H](N)CSSC[C@H](C(=O)NCC(=O)NCC(=O)NCC(=O)N[C@@H](CCCNC(=N)N)C(=O)N2CCC[C@H]2C(=O)N2CCC[C@H]2C(=O)N[C@@H](CCCNC(=N)N)C(=O)N[C@@H](CCCNC(=N)N)C(=O)N[C@@H](C)C(=O)N[C@@H](CCCNC(=N)N)C(=O)O)NC(=O)[C@H](CCC(=O)O)NC(=O)[C@H](CCCNC(=N)N)NC(=O)[C@H](CCCNC(=N)N)NC(=O)[C@H](CCCCN)NC(=O)[C@H](CCC(N)=O)NC(=O)[C@H](CCCCN)NC1=O [MN-2] (H-[dC][dF]LQYAVLKQKRRE[dC]GGGRPPRRAR-OH; disulfide 1-15)
  inhibition rate of the variant Omicron BA.2.75 pseudovirus: about 80%

From article PMC9666779 (Frontiers in Pharmacology, 2022)
